Reference: patent US10207985B2, “Compounds” (SYNGENTA PARTICIPATIONS AG, priority 2013, dated 2019)

melting point: 111 to 112 °C
SMILES: Cc1ccsc1C1CC[C@H]1NC(=O)c1ccccc1C(F)(F)F (stereo partly shown) [Compound 116-4]
